The values that follow come from US20050164370A1 (priority 2003, published 2005).

Each structure is given as a SMILES string.

In this assay the target is T1, cytokinin receptor AHK2Δ (Arabidopsis thaliana, UniProt Q9C5U2).
T1 sequence (Q9C5U2 196-1176): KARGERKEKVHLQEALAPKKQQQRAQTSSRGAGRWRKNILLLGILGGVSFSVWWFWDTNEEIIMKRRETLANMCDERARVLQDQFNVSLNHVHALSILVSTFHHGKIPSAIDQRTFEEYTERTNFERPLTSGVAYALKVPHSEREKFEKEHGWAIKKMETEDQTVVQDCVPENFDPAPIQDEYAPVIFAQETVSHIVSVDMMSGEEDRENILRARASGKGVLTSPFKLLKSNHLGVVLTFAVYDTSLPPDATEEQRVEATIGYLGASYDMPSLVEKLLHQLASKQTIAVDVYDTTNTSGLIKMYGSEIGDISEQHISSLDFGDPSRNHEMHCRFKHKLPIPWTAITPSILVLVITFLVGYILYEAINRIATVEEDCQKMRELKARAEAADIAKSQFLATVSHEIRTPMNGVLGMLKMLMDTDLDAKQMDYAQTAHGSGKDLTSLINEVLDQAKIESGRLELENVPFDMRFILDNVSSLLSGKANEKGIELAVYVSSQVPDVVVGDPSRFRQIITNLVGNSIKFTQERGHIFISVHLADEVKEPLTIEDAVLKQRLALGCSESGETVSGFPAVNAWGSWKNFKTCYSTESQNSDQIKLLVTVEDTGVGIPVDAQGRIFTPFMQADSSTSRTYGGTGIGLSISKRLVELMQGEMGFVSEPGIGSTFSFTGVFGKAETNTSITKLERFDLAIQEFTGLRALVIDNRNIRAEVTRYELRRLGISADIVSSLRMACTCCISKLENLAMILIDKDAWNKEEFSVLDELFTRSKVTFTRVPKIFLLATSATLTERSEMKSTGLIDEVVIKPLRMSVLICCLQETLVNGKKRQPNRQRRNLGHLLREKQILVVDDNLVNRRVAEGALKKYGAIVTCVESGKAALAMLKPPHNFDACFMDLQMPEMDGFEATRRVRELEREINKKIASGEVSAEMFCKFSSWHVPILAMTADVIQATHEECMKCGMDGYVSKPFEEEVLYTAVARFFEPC
The settings on record: TM182-AHK2Δ, DOLU+Glu agar, 30° C. for 30 hours. Here is the method: A culture solution 10 μl (about 800 clones of yeast) of the transformed cells TM182-CRE1, TM182-AHK2, TM182-AHK2Δ and TM182-AHK3 produced by the example 12 was spotted on DOLU+Glu agar media containing 10 μM of trans-zeatin and cultured at 30° C. for 30 hours. After incubation, the growth state of the transformed cells was observed and photographed by a digital camera.
Culture solutions of the transformed cells TM182-CRE1, TM182-AHK2Δ and TM182-AHK2 produced by the reference example 1 were spotted on DOLU+Glu agar media containing cytokinin in a variety of concentrations (1 nM, 10 nM, 100 nM, 1 μM, 10 μM, 100 μM) and cultured at 30° C. for 30 hours. After incubation, the growth state of the transformed cells was observed and photographed by a digital camera.

Consider `C/C(=C\CNc1ncnc2nc[nH]c12)CO` [trans-zeatin], for which the “lowest observed supply concentration in which the transformed cells could be grown” value (1 nM to 100 μM tested) was determined as 100 nM. Also, the “growth state of the transformed cells as compared with media containing no trans-zeatin” value (10 μM) is on record as “high growth”.
